Experimental data published in US11440913B2, “Aminoimidazopyridazines as kinase inhibitors” (BRISTOL-MYERS SQUIBB COMPANY, priority 2017, dated 2022).
Where a name gives a salt, the structure may show the parent alone. Read-outs that look alike come from different tables or passages of the source.

Columns and labels:
[1] = biological target: His-GST-TVMV-hRIPK1(1-324) (Homo sapiens (Human), UniProt Q13546); assay: RIPK1 HTRF Binding Assay; conditions: HTRF binding, 1 h at rt; read-out: RIPK1 (IC50)
His-GST-TVMV-hRIPK1(1-324), sequence (Q13546 1-324): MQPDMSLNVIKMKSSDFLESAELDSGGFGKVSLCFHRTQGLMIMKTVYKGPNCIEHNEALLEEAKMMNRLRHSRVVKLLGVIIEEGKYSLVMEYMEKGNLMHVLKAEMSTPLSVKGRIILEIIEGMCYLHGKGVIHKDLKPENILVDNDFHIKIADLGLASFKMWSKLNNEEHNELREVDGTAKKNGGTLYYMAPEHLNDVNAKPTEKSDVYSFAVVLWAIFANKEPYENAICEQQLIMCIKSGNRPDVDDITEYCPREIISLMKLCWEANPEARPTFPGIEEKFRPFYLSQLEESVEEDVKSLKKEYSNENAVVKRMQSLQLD
Procedure, shortened: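 HTRF probe-displacement binding: 1 nM His-GST-TVMV-hRIPK1(1-324) (baculovirus construct), 90.6 nM probe, 0.2 nM anti-GST-Tb in 20 mM HEPES, 10 mM MgCl2, 0.015% Brij-35, 4 mM DTT, 0.05 mg/mL BSA. Incubated 1 h at rt; FRET 520/495 nm ratio, inhibition relative to DMSO-only wells.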

[2] = test system: MLKL phosphorylation in HT29-L23 human colorectal adenocarcinoma cells; assay: MLKL Phosphorylation High-Content Assay; assay type: cell-based; conditions: 6 h, necroptosis induced with TNFα, SMAC mimetic and Z-VAD, read-out: pMLKL (IC50)
Procedure, shortened: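 HT29-L23 cells pretreated 30 min at 37 °C with compound (6.25 to 0.106 μM final), then necroptosis induced with TNFα 35 ng/mL, SMAC mimetic 700 nM and Z-VAD 140 nM for 6 h. Fixed cells immunostained for MLKL pS358 and imaged; IC50 and Ymax from 4-parameter logistic fit.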

SMILES	IC50 [1]	IC50 ([2]; Homo sapiens)	IC50 [2]
CC(=O)Nc1cn2nc(-c3cnc(C)c(C(=O)NCC[C@H](O)c4ccc(Cl)cc4)c3)ccc2n1 [Example 216, N-[(3S)-3-(4-chlorophenyl)-3-hydroxypropyl]-5-{2-acetamidoimidazo[1,2-b]pyridazin-6-yl}-2-methylpyridine-3-carboxamide]	66 nM	397 nM	
CC(=O)Nc1cn2nc(-c3cnc(C)c(C(=O)NCc4cccnc4OCC4CCCC4)c3)ccc2n1 [Example 217, N-{[2-(cyclopentylmethoxy)pyridin-3-yl]methyl}-5-{2-acetamidoimidazo [1,2-b]pyridazin-6-yl}-2-methylpyridine-3-carboxamide]	54 nM	205 nM	
CC(=O)Nc1cn2nc(-c3cnc(C)c(C(=O)NCc4cc(F)ccc4OCC4CCCC4)c3)ccc2n1 [Example 218, N-{[2-(cyclopentylmethoxy)-5-fluorophenyl]methyl}-5-{2-acetamidoimidazo[1,2-b]pyridazin-6-yl}-2-methylpyridine-3-carboxamide]	6 nM	15 nM	
CC(=O)Nc1cn2nc(-c3cnc(C)c(C(=O)NCc4c(F)cccc4OCC4CCC4)c3)ccc2n1 [Example 219, N-{[2-(cyclobutylmethoxy)-6-fluorophenyl]methyl}-5-{2-acetamidoimidazo[1,2-b]pyridazin-6-yl}-2-methylpyridine-3-carboxamide]	3 nM	1 nM	
CC(=O)Nc1cn2nc(-c3cnc(C)c(C(=O)NCc4ccccc4OC(F)(F)F)c3)ccc2n1 [Example 220, 5-{2-acetamidoimidazo[1,2-b]pyridazin-6-yl}-2-methyl-N-{[2-(trifluoromethoxy)phenyl]methyl}pyridine-3-carboxamide]	202 nM	406 nM	
CC(=O)Nc1cn2nc(-c3cnc(C)c(C(=O)NCc4cccc(OC(F)(F)F)c4)c3)ccc2n1 [Example 221, 5-{2-acetamidoimidazo[1,2-b]pyridazin-6-yl}-2-methyl-N-{[3-(trifluoromethoxy)phenyl]methyl}pyridine-3-carboxamide, TFA]	49 nM	52 nM	
CC(=O)Nc1cn2nc(-c3cnc(C)c(C(=O)NCc4cc(F)ccc4OC4CCCC4)c3)ccc2n1 [Example 222, N-{[2-(cyclopentyloxy)-5-fluorophenyl]methyl}-5-{2-acetamidoimidazo[1,2-b]pyridazin-6-yl}-2-methylpyridine-3-carboxamide]	3 nM	2 nM	
CC(=O)Nc1cn2nc(-c3cnc(C)c(C(=O)NCc4c(F)cccc4OC4CCCC4)c3)ccc2n1 [Example 223, N-{[2-(cyclopentyloxy)-6-fluorophenyl]methyl}-5-{2-acetamidoimidazo[1,2-b]pyridazin-6-yl}-2-methylpyridine-3-carboxamide]	4 nM	3 nM	
CC(=O)Nc1cn2nc(-c3cnc(C)c(C(=O)NCc4ccccc4OC4CCOC4)c3)ccc2n1 (stereo not drawn) [Example 224, 5-{2-acetamidoimidazo[1,2-b]pyridazin-6-yl}-2-methyl-N-{[2-(oxolan-3-yloxy)phenyl]methyl}pyridine-3-carboxamide]	157 nM	334 nM	
CC(=O)Nc1cn2nc(-c3cnc(C)c(C(=O)NCc4ccccc4OC4CCCC4)c3)ccc2n1 [Example 225, N-{[2-(cyclopentyloxy)phenyl]methyl}-5-{2-acetamidoimidazo[1,2-b]pyridazin-6-yl}-2-methylpyridine-3-carboxamide]	5 nM	3 nM	
CC(=O)Nc1cn2nc(-c3cnc(C)c(C(=O)NCc4c(F)cccc4OCC4CC4)c3)ccc2n1 [Example 226, N-{[2-(cyclopropylmethoxy)-6-fluorophenyl]methyl}-5-{2-acetamidoimidazo[1,2-b]pyridazin-6-yl}-2-methylpyridine-3-carboxamide]	6 nM	3 nM	
CC(=O)Nc1cn2nc(-c3cnc(C)c(C(=O)NCc4ccccc4OCC4CC4)c3)ccc2n1 [Example 227, N-{[2-(cyclopropylmethoxy)phenyl]methyl}-5-{2-acetamidoimidazo [1,2-b]pyridazin-6-yl}-2-methylpyridine-3-carboxamide]	8 nM	21 nM	
CC(=O)Nc1cn2nc(-c3cc(C(=O)N[C@@H](C)c4cc(OC(F)(F)F)ccc4F)cnc3C)ccc2n1 [Example 228, 5-{2-acetamidoimidazo[1,2-b]pyridazin-6-yl}-N-[(1S)-1-[2-fluoro-5-(trifluoromethoxy)phenyl]ethyl]-6-methylpyridine-3-carboxamide]	16 nM	193 nM	
[2H]C([2H])([2H])[C@@H](NC(=O)c1cnc(C)c(-c2ccc3nc(NC(C)=O)cn3n2)c1)c1cc(OC(F)(F)F)ccc1F [Example 229, 5-{2-acetamidoimidazo[1,2-b]pyridazin-6-yl}-N-[(1R)-1-[2-fluoro-5-(trifluoromethoxy)phenyl] (2,2,2-deutero)ethyl]-6-methylpyridine-3-carboxamide]	134 nM	436 nM	
[2H]C([2H])(NC(=O)c1cnc(C)c(-c2ccc3nc(NC(C)=O)cn3n2)c1)c1cc(OC(F)(F)F)ccc1F [Example 230, 5-{2-acetamidoimidazo[1,2-b]pyridazin-6-yl}-N-{[2-fluoro-5-(trifluoromethoxy)phenyl](deutero)methy 1}-6-methylpyridine-3-carboxamide]	19 nM	90 nM	
CC(=O)Nc1cn2nc(-c3cc(C(=O)NCCC(C)c4ccccc4)cnc3C)ccc2n1 (stereo not drawn) [Example 231, 5-{2-acetamidoimidazo[1,2-b]pyridazin-6-yl}-6-methyl-N-(3-phenylbutyl)pyridine-3-carboxamide]	6 nM		60 nM
CC(=O)Nc1cn2nc(-c3cc(C(=O)NCc4cccc(F)c4OCC4CC4)cnc3C)ccc2n1 [Example 232, N-{[2-(cyclopropylmethoxy)-3-fluorophenyl]methyl}-5-{2-acetamidoimidazo[1,2-b]pyridazin-6-yl}-6-methylpyridine-3-carboxamide]	4 nM	4 nM	
CC(=O)Nc1cn2nc(-c3cc(C(=O)NCc4ccccc4OC(F)(F)F)cnc3C)ccc2n1 [Example 233, 5-{2-acetamidoimidazo[1,2-b]pyridazin-6-yl}-6-methyl-N-{[2-(trifluoromethoxy)phenyl]methyl}pyridine-3-carboxamide]	38 nM	276 nM	
CC(=O)Nc1cn2nc(-c3cc(C(=O)NCc4cc(OC(F)(F)F)ccc4F)cnc3C)ccc2n1 [Example 234, 5-{2-acetamidoimidazo[1,2-b]pyridazin-6-yl}-N-{[2-fluoro-5-(trifluoromethoxy)phenyl]methyl}-6-methylpyridine-3-carboxamide]	46 nM	71 nM	
CC(=O)Nc1cn2nc(-c3cncc(C(=O)N[C@H](C)c4cc(OC(F)(F)F)ccc4F)c3)ccc2n1 [Example 235, 5-{2-acetamidoimidazo[1,2-b]pyridazin-6-yl}-N-[(1R)-1-[2-fluoro-5-(trifluoromethoxy)phenyl]ethyl]pyridine-3-carboxamide]	345 nM	355 nM	
CC(=O)Nc1cn2nc(-c3cncc(C(=O)NCc4cc(OCC5CC5)ccc4F)c3)ccc2n1 [Example 236, N-{[5-(cyclopropylmethoxy)-2-fluorophenyl]methyl}-5-{2-acetamidoimidazo[1,2-b]pyridazin-6-yl}pyridine-3-carboxamide]	95 nM	180 nM	
